From patent publication US5580904A, “Formamido and carboxyamido compounds which can be retained in brain” (Drug Delivery System Institute, Ltd., priority 1992, dated 1996) come the findings set out here.

Each structure is given as a SMILES string. Structures can show the parent of a compound that is named as a salt. Where two headings read alike, the source gives them in different places.

The data set is classed as in vivo. Conditions: 5 mg/kg on the basis of DOPA, into the femoral vein, SD rats. The protocol: The distribution and residence in brain of the compounds according to the present invention were evaluated as follows.
Blood samples were taken out from abdominal aorta after a certain period of […]. Immediately after the exsanguination, whole brain was removed. Experiments were carried out with 3 rats at each blood sampling point.
The DOPA concentration in the whole brain was determined in accordance with the method "New Biochemical Experiment Course, Vol. 11, Neurobiochemistry,p. 289-290 (edited by Biochemical Society, Japan, published by Tokyo Kagaku-Dojin, 1990)." As the controls, the Boc-eliminated Compound D and DOPA were administered in the same manner as above to determine the DOPA concentration.

Take `C=CCSS/C(CCOC(=O)C(N)Cc1ccc(OC(=O)C(C)(C)C)c(OC(=O)C(C)(C)C)c1)=C(/C)N(C=O)Cc1cnc(C)nc1N` (stereo not drawn) [35 (b), N-[(4-amino-2-methyl-5-pyrimidyl)methyl]-N-[4-[2-amino-3-(3,4-dipivaloyloxyphenyl)propionyl]oxy-1-methyl-2-[(2-propenyl)dithio]-1-butenyl]formamide]: the “Area under the curve of concentration (AUC) of DOPA in brain” value (“Area under the curve of concentration” below) (Time 0-4 hr) was 10626 ng·min/g.

`C/C(=C(\CCOC(=O)C(N)Cc1ccc(OC(=O)C(C)(C)C)c(OC(=O)C(C)(C)C)c1)SSCC1CCCO1)N(C=O)Cc1cnc(C)nc1N` (stereo not drawn) [29 (b), N-[(4-amino-2-methyl-5-pyrimidyl)methyl]-N-[4-[2-amino-3-(3,4-dipivaloyloxyphenyl)propionyl]oxy-1-methyl-2-[(tetrahydrofurfuryl)dithio]-1-butenyl]formamide]: the “Area under the curve of concentration” value turned out to be 6659 ng·min/g (Time 0-2 hr) and 7151 ng·min/g (Time 0-4 hr).

For `CC(C)(C)C(=O)Oc1ccc(C[C@H](N)C(=O)O)cc1OC(=O)C(C)(C)C` [Boc-elimination of Compound D, reference compound], the “Area under the curve of concentration” value by setting is: (Time 0-2 hr) 3169 ng·min/g; (Time 0-4 hr) 3277 ng·min/g.

For the molecule `N[C@@H](Cc1ccc(O)c(O)c1)C(=O)O` [DOPA, 3,4-dihydroxy phenylalanine, reference compound], the “Area under the curve of concentration” value (Time 0-2 hr) amounted to 6035 ng·min/g and the “Area under the curve of concentration” value (Time 0-4 hr) was 6035 ng·min/g.

For the molecule `C/C(=C(\CCOC(=O)C(N)Cc1ccc(OC(=O)C(C)(C)C)c(OC(=O)C(C)(C)C)c1)SSC(C)C)N(C=O)Cc1cnc(C)nc1N` (stereo not drawn) [Example 30 (b), N-[(4-amino-2-methyl-5-pyrimidyl)methyl]-N-[4-[2-amino-3-(3,4-dipivaloyloxyphenyl)propionyl]oxy-1-methyl-2-[(2-propyl)dithio]-1-butenyl]formamide hydrochloride], the “Area under the curve of concentration” value (Time 0-2 hr) is 34595 ng·min/g.

Regarding `CC(=C(CCOC(=O)[C@@H](N)Cc1ccc(OC(=O)C(C)(C)C)c(OC(=O)C(C)(C)C)c1)SSC(C)C)N(C)C=O` [3 (b)], the “Area under the curve of concentration” value (Time 0-4 hr) amounted to 82476 ng·min/g.
